Results taken from patent publication USRE39087E1, “Azithromycin monohydrate isopropanol clathrate and methods for the manufacture thereof” (Apotex, Inc., priority 1998, dated 2006).
Where two headings read alike, the source gives them in different places.

Columns and labels:
[1] = solid form, known from prior patents (EP 298 650 B1, CA 1,314,876), cited from earlier work
[2] = Hygroscopicity of azithromycin forms; type: physicochemical; settings: solid form
[3] = Extended vacuum drying, water (Karl-Fischer) and isopropanol (gas chromatography) content; type: physicochemical; settings: vacuum 1-10 mm Hg, 50° C. to 60° C., beyond 12-24 hours
Procedure: According to this invention, azithromycin monohydrate isopropanol clathrate contains three molecules of isopropanol for every ten molecules of azithromycin monohydrate. The process comprises the dissolution of azithromycin in isopropanol to which water is added slowly while stirring, resulting in the precipitation of crystalline azithromycin monohydrate isopropanol clathrate. The volume of solvent used is such as to be sufficient to dissolve azithromycin. The addition of the water is carried out between 0° and 30° C. and preferably between 15° C. to 25° C. The product is filtered and washed with a mixture of water-isopropanol and dried under vacuum (1-10 mm Hg) at 50° C. to 60° C. for 12-24 hours to obtain azithromycin monohydrate isopropanol clathrate in high yields. […] The water content of azithromycin monohydrate isopropanol clathrate was measured by the Karl-Fischer method and its isopropanol content was determined by gas chromatography.

In the case of `CC[C@H]1OC(=O)[C@H](C)[C@@H](O[C@H]2C[C@@](C)(OC)[C@@H](O)[C@H](C)O2)[C@H](C)[C@@H](O[C@@H]2O[C@H](C)C[C@H](N(C)C)[C@H]2O)[C@](C)(O)C[C@@H](C)CN(C)[C@H](C)[C@@H](O)[C@]1(C)O` [azithromycin dihydrate], the hygroscopicity ([1]; dihydrate) is given as “not hygroscopic”.

In the case of `CC[C@H]1OC(=O)[C@H](C)[C@@H](O[C@H]2C[C@@](C)(OC)[C@@H](O)[C@H](C)O2)[C@H](C)[C@@H](O[C@@H]2O[C@H](C)C[C@H](N(C)C)[C@H]2O)[C@](C)(O)C[C@@H](C)CN(C)[C@H](C)[C@@H](O)[C@]1(C)O` [Azithromycin monohydrate, azithromycin monohydrate], the hygroscopicity ([1]; monohydrate) is given as “hygroscopic”.

In the case of “azithromycin monohydrate isopropanol clathrate”, the hygroscopicity [2] is reported as “not hygroscopic” and the “effect of extension of vacuum drying on water and isopropanol content” value [3] is reported as “does not reduce either the water content or the isopropanol content”.
